Patent US20260027068A1, “METHODS OF ADM[…]-KETAMINE” (Perception Neuroscience, Inc., priority 2022, published 2026)

What was measured:
Pulse (vital signs) = assay: Pulse (vital signs)
Experimental: The Investigational Medicinal Product (IMP) R(−)-ketamine hydrochloride in sterile water for intravenous injection was investigated as an […] treatment of TRD. The International Union of Pure and Applied Chemistry (IUPAC) name is of the IMP is (2R)-2-(2-chlorophenyl)-2-(methylamino)cyclohexan-1-one. Subjects received the solution at either 30 mg or 60 mg dose, or a placebo. The IMP or placebo was administered on Day 1 as a single IV infusion via an electronic infusion pump over 40 minutes. The duration of study participation for each subject was up to 29 days including a screening period, a 3-day in-clinic visit, and 2 follow-up visits. 101 subjects were enrolled in approximately 20 study centers in the EU and the US.
Tympanic or temporal temperature, heart rate, blood pressure (SBP/DBP), respiratory rate, and SpO2 were assessed. Blood pressure and pulse measurements will be assessed with a completely automated device while the subject is supine or semi-supine. Manual techniques will be used only if an automated device is not available. Blood pressure and pulse measurements should be preceded by at least 5 minutes of rest for the subject in a quiet setting without distractions (e.g., television, cell phones). An abnormal blood pressure value at screening may be repeated once after 5 minutes of relaxation to determine the subject's eligibility. Blood pressure was recorded using the same arm and position (supine or semi-supine) throughout the study, where possible. Vital signs (to be taken before blood collection for laboratory tests) consisted of 1 pulse and 3 blood pressure measurements (3 consecutive blood pressure readings will be recorded at intervals of at least 1 minute). The average of the 3 blood pressure readings was recorded in the CRF. A pulse oximeter was used to measure peripheral capillary oxygen saturation (SpO2) continuously from pre-dose until 4-hours post-dose. A pulse oximeter was clipped onto the finger or foot of the subject, and light will be sent through the finger or foot and measured on the other side.
In these tables, baseline value is defined as the last non-missing value prior to study drug administration.

CYP2B6 = molecular target: T1, CYP2B6 (Homo sapiens, UniProt P20813); details: in vitro
T1 sequence (P20813 1-491): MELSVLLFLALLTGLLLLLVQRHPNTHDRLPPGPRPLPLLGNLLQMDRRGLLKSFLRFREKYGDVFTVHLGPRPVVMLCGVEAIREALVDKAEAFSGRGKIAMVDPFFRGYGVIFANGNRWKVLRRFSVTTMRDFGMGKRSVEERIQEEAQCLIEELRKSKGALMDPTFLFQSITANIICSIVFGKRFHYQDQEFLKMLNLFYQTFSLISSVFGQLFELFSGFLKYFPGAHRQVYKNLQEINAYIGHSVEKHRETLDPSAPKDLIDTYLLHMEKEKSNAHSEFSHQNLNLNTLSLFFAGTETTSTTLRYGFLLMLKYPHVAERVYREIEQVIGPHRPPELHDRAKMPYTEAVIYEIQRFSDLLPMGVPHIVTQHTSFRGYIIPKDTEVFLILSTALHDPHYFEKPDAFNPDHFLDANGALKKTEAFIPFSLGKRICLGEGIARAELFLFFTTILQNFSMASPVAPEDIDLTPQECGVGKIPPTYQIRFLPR

For CN[C@@]1(c2ccccc2Cl)CCCCC1=O.Cl [R(−)-ketamine, (2R)-2-(2-chlorophenyl)-2-(methylamino)cyclohexan-1-one], the “Pulse: Mean” value (Pulse (vital signs); 30 mg, Day 1, 15 minutes) was 69.4 beats/minute, the “Pulse: Median” value (Pulse (vital signs); 30 mg, Day 1, 15 minutes) was 70.0 beats/minute and the “Pulse: Mean” value (Pulse (vital signs); 30 mg, Day 1, 40 minutes) was 69.9 beats/minute. The “Pulse: Median” value (Pulse (vital signs); 30 mg, Day 1, 40 minutes) was 70.0 beats/minute, the “Pulse: Mean” value (Pulse (vital signs); 30 mg, Day 1, 60 minutes) was 67.2 beats/minute and the “Pulse: Median” value (Pulse (vital signs); 30 mg, Day 1, 60 minutes) was 68.5 beats/minute. The “Pulse: Mean” value (Pulse (vital signs); 30 mg, Day 1, 2 hours) was 70.7 beats/minute, the “Pulse: Median” value (Pulse (vital signs); 30 mg, Day 1, 2 hours) was 70.0 beats/minute and the “Pulse: Mean” value (Pulse (vital signs); 30 mg, Day 1, 4 hours) was 72.1 beats/minute. For the same compound, the “Pulse: Median” value (Pulse (vital signs); 30 mg, Day 1, 4 hours) was 72.0 beats/minute, the “Pulse: Mean” value (Pulse (vital signs); 30 mg, Day 1, 6 hours) was 70.7 beats/minute and the “Pulse: Median” value (Pulse (vital signs); 30 mg, Day 1, 6 hours) was 72.0 beats/minute. The “Pulse: Mean” value (Pulse (vital signs); 30 mg, Day 2 - Discharge) was 73.5 beats/minute, the “Pulse: Median” value (Pulse (vital signs); 30 mg, Day 2 - Discharge) was 75.0 beats/minute and the “Pulse: Mean” value (Pulse (vital signs); 30 mg, Day 8) was 74.1 beats/minute. For the same compound, the “Pulse: Median” value (Pulse (vital signs); 30 mg, Day 8) was 74.0 beats/minute, the “Pulse: Mean” value (Pulse (vital signs); 30 mg, Day 15) was 74.4 beats/minute and the “Pulse: Median” value (Pulse (vital signs); 30 mg, Day 15) was 75.0 beats/minute. For the same compound, the “Pulse: Change from Baseline, Mean” value (Pulse (vital signs); 30 mg, to Day 1, 15 minutes) was −0.4 beats/minute, the “Pulse: Change from Baseline, Median” value (Pulse (vital signs); 30 mg, to Day 1, 15 minutes) was 0.0 beats/minute and the “Pulse: Change from Baseline, Mean” value (Pulse (vital signs); 30 mg, to Day 1, 40 minutes) was −0.6 beats/minute. For the same compound, the “Pulse: Change from Baseline, Median” value (Pulse (vital signs); 30 mg, to Day 1, 40 minutes) was −1.0 beats/minute, the “Pulse: Change from Baseline, Mean” value (Pulse (vital signs); 30 mg, to Day 1, 60 minutes) was −2.5 beats/minute and the “Pulse: Change from Baseline, Median” value (Pulse (vital signs); 30 mg, to Day 1, 60 minutes) was −3.5 beats/minute. For the same compound, the “Pulse: Change from Baseline, Mean” value (Pulse (vital signs); 30 mg, to Day 1, 2 hours) was 0.2 beats/minute, the “Pulse: Change from Baseline, Median” value (Pulse (vital signs); 30 mg, to Day 1, 2 hours) was −2.0 beats/minute and the “Pulse: Change from Baseline, Mean” value (Pulse (vital signs); 30 mg, to Day 1, 4 hours) was 1.6 beats/minute. The “Pulse: Change from Baseline, Median” value (Pulse (vital signs); 30 mg, to Day 1, 4 hours) was 2.0 beats/minute, the “Pulse: Change from Baseline, Mean” value (Pulse (vital signs); 30 mg, to Day 1, 6 hours) was 0.2 beats/minute and the “Pulse: Change from Baseline, Median” value (Pulse (vital signs); 30 mg, to Day 1, 6 hours) was 1.0 beats/minute. For the same compound, the “Pulse: Change from Baseline, Mean” value (Pulse (vital signs); 30 mg, to Day 2 - Discharge) was 3.1 beats/minute, the “Pulse: Change from Baseline, Median” value (Pulse (vital signs); 30 mg, to Day 2 - Discharge) was 2.0 beats/minute and the “Pulse: Change from Baseline, Mean” value (Pulse (vital signs); 30 mg, to Day 8) was 2.1 beats/minute. The “Pulse: Change from Baseline, Median” value (Pulse (vital signs); 30 mg, to Day 8) was 1.0 beats/minute, the “Pulse: Change from Baseline, Mean” value (Pulse (vital signs); 30 mg, to Day 15) was 3.3 beats/minute and the “Pulse: Change from Baseline, Median” value (Pulse (vital signs); 30 mg, to Day 15) was 2.0 beats/minute. The “Pulse: Mean” value (Pulse (vital signs); 60 mg, Day 1, 15 minutes) was 67.3 beats/minute, the “Pulse: Median” value (Pulse (vital signs); 60 mg, Day 1, 15 minutes) was 66.5 beats/minute and the “Pulse: Mean” value (Pulse (vital signs); 60 mg, Day 1, 40 minutes) was 68.0 beats/minute. For the same compound, the “Pulse: Median” value (Pulse (vital signs); 60 mg, Day 1, 40 minutes) was 68.0 beats/minute, the “Pulse: Mean” value (Pulse (vital signs); 60 mg, Day 1, 60 minutes) was 64.9 beats/minute and the “Pulse: Median” value (Pulse (vital signs); 60 mg, Day 1, 60 minutes) was 65.0 beats/minute. The “Pulse: Mean” value (Pulse (vital signs); 60 mg, Day 1, 2 hours) was 68.2 beats/minute, the “Pulse: Median” value (Pulse (vital signs); 60 mg, Day 1, 2 hours) was 70.0 beats/minute and the “Pulse: Mean” value (Pulse (vital signs); 60 mg, Day 1, 4 hours) was 70.7 beats/minute. The “Pulse: Median” value (Pulse (vital signs); 60 mg, Day 1, 4 hours) was 72.0 beats/minute, the “Pulse: Mean” value (Pulse (vital signs); 60 mg, Day 1, 6 hours) was 72.6 beats/minute and the “Pulse: Median” value (Pulse (vital signs); 60 mg, Day 1, 6 hours) was 71.0 beats/minute. For the same compound, the “Pulse: Mean” value (Pulse (vital signs); 60 mg, Day 2 - Discharge) was 72.2 beats/minute, the “Pulse: Median” value (Pulse (vital signs); 60 mg, Day 2 - Discharge) was 70.0 beats/minute and the “Pulse: Mean” value (Pulse (vital signs); 60 mg, Day 8) was 73.3 beats/minute. The “Pulse: Median” value (Pulse (vital signs); 60 mg, Day 8) was 70.0 beats/minute, the “Pulse: Mean” value (Pulse (vital signs); 60 mg, Day 15) was 71.0 beats/minute and the “Pulse: Median” value (Pulse (vital signs); 60 mg, Day 15) was 69.0 beats/minute. For the same compound, the “Pulse: Change from Baseline, Mean” value (Pulse (vital signs); 60 mg, to Day 1, 15 minutes) was 0.0 beats/minute, the “Pulse: Change from Baseline, Median” value (Pulse (vital signs); 60 mg, to Day 1, 15 minutes) was 0.5 beats/minute and the “Pulse: Change from Baseline, Mean” value (Pulse (vital signs); 60 mg, to Day 1, 40 minutes) was −4.7 beats/minute. The “Pulse: Change from Baseline, Median” value (Pulse (vital signs); 60 mg, to Day 1, 40 minutes) was −5.0 beats/minute, the “Pulse: Change from Baseline, Mean” value (Pulse (vital signs); 60 mg, to Day 1, 60 minutes) was −2.3 beats/minute and the “Pulse: Change from Baseline, Median” value (Pulse (vital signs); 60 mg, to Day 1, 60 minutes) was −1.0 beats/minute. For the same compound, the “Pulse: Change from Baseline, Mean” value (Pulse (vital signs); 60 mg, to Day 1, 2 hours) was −4.5 beats/minute, the “Pulse: Change from Baseline, Median” value (Pulse (vital signs); 60 mg, to Day 1, 2 hours) was −5.0 beats/minute and the “Pulse: Change from Baseline, Mean” value (Pulse (vital signs); 60 mg, to Day 1, 4 hours) was −2.0 beats/minute. The “Pulse: Change from Baseline, Median” value (Pulse (vital signs); 60 mg, to Day 1, 4 hours) was −1.0 beats/minute, the “Pulse: Change from Baseline, Mean” value (Pulse (vital signs); 60 mg, to Day 1, 6 hours) was −0.3 beats/minute and the “Pulse: Change from Baseline, Median” value (Pulse (vital signs); 60 mg, to Day 1, 6 hours) was 0.5 beats/minute. For the same compound, the “Pulse: Change from Baseline, Mean” value (Pulse (vital signs); 60 mg, to Day 2 - Discharge) was −0.6 beats/minute, the “Pulse: Change from Baseline, Median” value (Pulse (vital signs); 60 mg, to Day 2 - Discharge) was −1.0 beats/minute and the “Pulse: Change from Baseline, Mean” value (Pulse (vital signs); 60 mg, to Day 8) was 0.6 beats/minute. The “Pulse: Change from Baseline, Median” value (Pulse (vital signs); 60 mg, to Day 8) was 0.0 beats/minute, the “Pulse: Change from Baseline, Mean” value (Pulse (vital signs); 60 mg, to Day 15) was −1.7 beats/minute and the “Pulse: Change from Baseline, Median” value (Pulse (vital signs); 60 mg, to Day 15) was 0.0 beats/minute. For the same compound, the CYP2B6 inhibition (CYP2B6) was “inhibitor”.
